One test addresses T1, Progesterone receptor (Homo sapiens, UniProt P06401).
T1 sequence (P06401 whole entry): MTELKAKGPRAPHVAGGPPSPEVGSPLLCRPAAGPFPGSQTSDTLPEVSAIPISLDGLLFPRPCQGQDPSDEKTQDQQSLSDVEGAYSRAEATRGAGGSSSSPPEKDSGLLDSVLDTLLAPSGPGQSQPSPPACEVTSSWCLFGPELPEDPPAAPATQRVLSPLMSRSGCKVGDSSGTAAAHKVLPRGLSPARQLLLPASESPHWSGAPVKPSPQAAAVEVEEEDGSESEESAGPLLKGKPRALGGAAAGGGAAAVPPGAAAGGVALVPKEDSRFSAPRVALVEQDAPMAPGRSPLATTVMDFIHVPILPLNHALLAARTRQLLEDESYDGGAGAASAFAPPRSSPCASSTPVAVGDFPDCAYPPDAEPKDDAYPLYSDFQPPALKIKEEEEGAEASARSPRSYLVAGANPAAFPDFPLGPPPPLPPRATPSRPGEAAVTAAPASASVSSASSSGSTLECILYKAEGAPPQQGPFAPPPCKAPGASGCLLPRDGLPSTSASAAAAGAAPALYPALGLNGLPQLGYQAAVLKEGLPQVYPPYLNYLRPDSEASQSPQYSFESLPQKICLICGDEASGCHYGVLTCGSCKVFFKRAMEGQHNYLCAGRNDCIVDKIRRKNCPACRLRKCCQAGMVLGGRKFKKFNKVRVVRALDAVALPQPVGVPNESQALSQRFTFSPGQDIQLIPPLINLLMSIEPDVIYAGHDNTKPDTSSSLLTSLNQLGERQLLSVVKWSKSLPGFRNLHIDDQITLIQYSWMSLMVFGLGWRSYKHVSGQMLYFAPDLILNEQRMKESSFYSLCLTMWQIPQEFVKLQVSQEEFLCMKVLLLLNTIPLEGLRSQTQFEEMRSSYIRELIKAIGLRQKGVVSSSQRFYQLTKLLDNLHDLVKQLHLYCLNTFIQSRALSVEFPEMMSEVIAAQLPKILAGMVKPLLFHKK
It is filed as functional.

The target of test [1] is 5-hydroxytryptamine receptor 2B (Homo sapiens, UniProt P41595). The class given is functional, cell-based.
The target of test [2] is Sodium-dependent dopamine transporter (Homo sapiens, UniProt Q01959).
Test [3] deals with T2, Alpha-2C adrenergic receptor (Homo sapiens, UniProt P18825).
T2 sequence (P18825 whole entry): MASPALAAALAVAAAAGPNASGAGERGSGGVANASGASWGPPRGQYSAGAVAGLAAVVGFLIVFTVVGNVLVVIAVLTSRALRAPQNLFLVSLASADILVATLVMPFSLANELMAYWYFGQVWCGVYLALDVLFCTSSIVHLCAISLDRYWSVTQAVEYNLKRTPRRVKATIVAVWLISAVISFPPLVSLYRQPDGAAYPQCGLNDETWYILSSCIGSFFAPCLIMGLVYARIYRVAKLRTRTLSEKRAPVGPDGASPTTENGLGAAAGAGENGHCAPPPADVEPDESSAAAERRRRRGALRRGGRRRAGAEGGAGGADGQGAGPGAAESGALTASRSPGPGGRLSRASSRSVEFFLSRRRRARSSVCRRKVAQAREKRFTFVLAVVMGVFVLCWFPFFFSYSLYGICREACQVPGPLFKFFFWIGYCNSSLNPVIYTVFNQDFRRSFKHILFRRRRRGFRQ
It is filed as functional.

Test [4] concerns the target Voltage-dependent L-type calcium channel subunit alpha-1C (Rattus norvegicus, UniProt P22002). It is filed as functional.
For test [5], the target named is T3, Equilibrative nucleoside transporter 1 (Homo sapiens, UniProt Q99808).
T3 sequence (Q99808 whole entry): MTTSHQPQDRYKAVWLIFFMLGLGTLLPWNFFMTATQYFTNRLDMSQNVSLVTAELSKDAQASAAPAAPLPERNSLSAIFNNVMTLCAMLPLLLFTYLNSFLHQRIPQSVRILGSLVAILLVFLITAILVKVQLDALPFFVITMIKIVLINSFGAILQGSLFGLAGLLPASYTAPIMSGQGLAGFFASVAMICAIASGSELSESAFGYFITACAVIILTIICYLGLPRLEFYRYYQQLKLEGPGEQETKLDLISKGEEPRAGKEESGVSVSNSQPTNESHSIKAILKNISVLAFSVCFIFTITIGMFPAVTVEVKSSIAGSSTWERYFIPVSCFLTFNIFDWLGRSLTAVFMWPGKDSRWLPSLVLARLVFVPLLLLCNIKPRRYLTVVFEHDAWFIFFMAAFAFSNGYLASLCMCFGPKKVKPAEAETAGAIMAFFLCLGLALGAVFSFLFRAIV

25 compounds from ChEMBL document CHEMBL5291721, “A preclinical secondary pharmacology resource illuminates target-adverse drug reaction associations of marketed drugs” (Nat Commun, 2023) can be followed below.

Usually AC50 stands for the midpoint of the concentration-response curve, whichever way the signal moves.
Also: assay procedure not described here.

5-hydroxytryptamine receptor 2B, sequence (P41595 whole entry): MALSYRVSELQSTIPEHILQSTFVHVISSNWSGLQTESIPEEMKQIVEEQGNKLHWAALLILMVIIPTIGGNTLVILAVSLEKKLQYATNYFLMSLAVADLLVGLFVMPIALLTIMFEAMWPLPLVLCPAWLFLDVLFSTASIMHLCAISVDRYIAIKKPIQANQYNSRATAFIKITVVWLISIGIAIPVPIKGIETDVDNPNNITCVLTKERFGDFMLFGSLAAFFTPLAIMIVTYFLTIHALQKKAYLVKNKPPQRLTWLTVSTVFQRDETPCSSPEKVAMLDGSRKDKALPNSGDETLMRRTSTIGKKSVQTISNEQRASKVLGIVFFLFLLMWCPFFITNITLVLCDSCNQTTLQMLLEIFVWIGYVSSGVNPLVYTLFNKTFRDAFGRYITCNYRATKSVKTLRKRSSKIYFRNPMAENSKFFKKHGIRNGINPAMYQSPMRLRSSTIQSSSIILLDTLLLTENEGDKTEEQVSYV
Voltage-dependent L-type calcium channel subunit alpha-1C, sequence (P22002 whole entry): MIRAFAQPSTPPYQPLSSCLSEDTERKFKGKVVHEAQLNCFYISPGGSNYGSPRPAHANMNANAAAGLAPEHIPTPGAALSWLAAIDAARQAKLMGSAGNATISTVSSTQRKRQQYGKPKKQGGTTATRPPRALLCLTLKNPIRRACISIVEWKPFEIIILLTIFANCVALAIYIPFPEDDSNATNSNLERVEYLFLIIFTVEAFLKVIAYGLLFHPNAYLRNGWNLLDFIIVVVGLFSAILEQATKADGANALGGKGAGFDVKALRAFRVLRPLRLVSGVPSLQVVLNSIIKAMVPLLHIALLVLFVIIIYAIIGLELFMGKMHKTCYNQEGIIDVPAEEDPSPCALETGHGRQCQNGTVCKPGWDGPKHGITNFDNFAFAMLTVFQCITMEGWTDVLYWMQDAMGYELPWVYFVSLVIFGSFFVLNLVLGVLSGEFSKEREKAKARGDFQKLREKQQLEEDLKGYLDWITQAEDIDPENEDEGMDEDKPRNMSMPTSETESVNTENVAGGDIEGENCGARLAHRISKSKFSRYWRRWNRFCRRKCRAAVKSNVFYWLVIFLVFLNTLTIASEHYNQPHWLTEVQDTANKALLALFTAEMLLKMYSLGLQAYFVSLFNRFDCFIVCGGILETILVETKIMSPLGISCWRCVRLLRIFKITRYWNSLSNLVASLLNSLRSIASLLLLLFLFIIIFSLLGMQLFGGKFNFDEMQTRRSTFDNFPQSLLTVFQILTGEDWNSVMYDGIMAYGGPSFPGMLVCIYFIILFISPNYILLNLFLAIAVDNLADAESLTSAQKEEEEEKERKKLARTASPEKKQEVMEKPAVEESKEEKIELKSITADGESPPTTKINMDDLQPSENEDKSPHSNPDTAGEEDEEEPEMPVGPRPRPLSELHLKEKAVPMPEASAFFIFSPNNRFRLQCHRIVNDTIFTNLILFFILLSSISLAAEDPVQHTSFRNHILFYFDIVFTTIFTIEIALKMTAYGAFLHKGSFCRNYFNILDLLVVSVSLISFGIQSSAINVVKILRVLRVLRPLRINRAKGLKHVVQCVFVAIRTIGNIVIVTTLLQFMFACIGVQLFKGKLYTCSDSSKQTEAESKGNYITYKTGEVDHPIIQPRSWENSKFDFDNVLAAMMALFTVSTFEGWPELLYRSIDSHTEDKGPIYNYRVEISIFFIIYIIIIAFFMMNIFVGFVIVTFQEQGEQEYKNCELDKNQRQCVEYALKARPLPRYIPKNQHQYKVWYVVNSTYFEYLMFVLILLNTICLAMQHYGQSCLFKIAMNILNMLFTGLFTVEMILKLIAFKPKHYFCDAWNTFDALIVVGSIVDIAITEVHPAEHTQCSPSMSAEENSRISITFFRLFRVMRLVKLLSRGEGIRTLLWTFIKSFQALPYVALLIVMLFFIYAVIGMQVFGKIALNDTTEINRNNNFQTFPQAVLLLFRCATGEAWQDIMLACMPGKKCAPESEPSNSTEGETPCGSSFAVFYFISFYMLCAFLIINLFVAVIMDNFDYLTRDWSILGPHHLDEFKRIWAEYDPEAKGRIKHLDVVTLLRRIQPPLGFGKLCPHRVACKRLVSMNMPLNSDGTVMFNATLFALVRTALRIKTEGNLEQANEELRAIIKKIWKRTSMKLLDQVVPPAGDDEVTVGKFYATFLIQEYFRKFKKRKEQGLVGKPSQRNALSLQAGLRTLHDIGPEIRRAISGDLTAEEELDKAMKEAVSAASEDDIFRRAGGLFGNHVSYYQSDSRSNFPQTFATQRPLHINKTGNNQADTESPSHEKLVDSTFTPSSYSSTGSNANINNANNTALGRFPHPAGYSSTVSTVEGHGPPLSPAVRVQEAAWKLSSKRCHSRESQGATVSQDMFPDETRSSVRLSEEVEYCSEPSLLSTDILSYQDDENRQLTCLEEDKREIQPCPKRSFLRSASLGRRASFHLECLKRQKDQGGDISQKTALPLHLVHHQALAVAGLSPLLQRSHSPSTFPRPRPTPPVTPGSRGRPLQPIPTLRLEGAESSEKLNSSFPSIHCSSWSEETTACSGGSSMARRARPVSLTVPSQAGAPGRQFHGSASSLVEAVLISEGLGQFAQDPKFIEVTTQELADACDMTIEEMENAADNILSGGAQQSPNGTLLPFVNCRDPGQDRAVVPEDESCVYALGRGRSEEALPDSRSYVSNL
Sodium-dependent dopamine transporter, sequence (Q01959 whole entry): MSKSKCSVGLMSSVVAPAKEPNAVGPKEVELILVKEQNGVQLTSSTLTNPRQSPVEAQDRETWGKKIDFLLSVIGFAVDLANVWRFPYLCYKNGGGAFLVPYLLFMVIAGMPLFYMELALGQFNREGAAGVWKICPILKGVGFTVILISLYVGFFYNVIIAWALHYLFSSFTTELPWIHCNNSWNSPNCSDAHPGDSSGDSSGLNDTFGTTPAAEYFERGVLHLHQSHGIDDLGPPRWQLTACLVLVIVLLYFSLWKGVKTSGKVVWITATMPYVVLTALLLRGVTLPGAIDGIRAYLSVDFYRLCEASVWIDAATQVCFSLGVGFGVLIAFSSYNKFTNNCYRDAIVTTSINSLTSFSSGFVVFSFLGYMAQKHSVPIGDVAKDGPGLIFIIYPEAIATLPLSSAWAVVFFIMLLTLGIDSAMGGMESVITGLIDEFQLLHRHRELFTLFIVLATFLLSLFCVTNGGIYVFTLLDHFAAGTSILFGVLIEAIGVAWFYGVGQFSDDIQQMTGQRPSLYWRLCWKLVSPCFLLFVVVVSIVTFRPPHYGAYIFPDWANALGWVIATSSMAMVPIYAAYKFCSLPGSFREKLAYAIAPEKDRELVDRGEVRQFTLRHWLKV

`C[N+]1(C)CCC(=C(c2ccccc2)c2ccccc2)CC1`: the AC50 was more than 10 µM on Progesterone receptor; 29 µM in test [1]; more than 10 µM in test [2]; more than 10 µM in test [3]; more than 10 µM in test [4]; more than 10 µM in test [5].
For the compound `C[N+](C)(C)CCOP(=O)([O-])OC[C@H](O)CO`, the AC50 (at Progesterone receptor; in test [1]; in test [2]; in test [3]; in test [4]; in test [5]) was more than 30 µM throughout.
With `CN(C)Cc1nnc2n1-c1ccc(Cl)cc1C(c1ccccc1)=NC2` [ADINAZOLAM], the AC50 (at Progesterone receptor; in test [1]; in test [2]; in test [3]; in test [4]; in test [5]) was more than 10 µM each time.
In the case of `CN(C)C/C=C/C(=O)Nc1cc2c(Nc3ccc(F)c(Cl)c3)ncnc2cc1O[C@H]1CCOC1` [AFATINIB], the AC50 is more than 30 µM on Progesterone receptor; more than 30 µM in test [1]; 23.2 µM in test [2]; more than 30 µM in test [3]; more than 30 µM in test [5].
Consider `Cc1ccccc1-n1c(CF)nc2ccc(N)cc2c1=O` [AFLOQUALONE], for which the AC50 at Progesterone receptor is more than 30 µM; in test [1], more than 10 µM; in test [2] it was more than 30 µM; in test [3], more than 10 µM; in test [4], more than 10 µM; in test [5] it was more than 30 µM.
With `CCC1(c2ccc(N)cc2)CCC(=O)NC1=O` (configuration not stated) [AMINOGLUTETHIMIDE], the AC50 (at Progesterone receptor; in test [2]; in test [3]; in test [5]) was more than 30 µM each time.
With `CC1=C(C(=O)OC(C)C)C(c2cccc([N+](=O)[O-])c2)C(C(=O)OC2CN(C(c3ccccc3)c3ccccc3)C2)=C(N)N1` (configuration not stated) [AZELNIDIPINE], the AC50 at Progesterone receptor is more than 3 µM; in test [1], more than 30 µM; in test [2] it was 26 µM; in test [3], 13 µM; in test [4], 0.092 µM; in test [5], more than 30 µM.
With `O=C(/C=C/c1cccc(S(=O)(=O)Nc2ccccc2)c1)NO` [BELINOSTAT], the AC50 is more than 10 µM in test [2], more than 10 µM in test [3], more than 10 µM in test [4] and more than 30 µM in test [5].
For the compound `CC(Cc1cccc(C(F)(F)F)c1)NCCOC(=O)c1ccccc1` (configuration not stated) [BENFLUOREX], the AC50 on Progesterone receptor was more than 30 µM; in test [1] it was 0.495 µM; in test [2], 15 µM; in test [3], 2.41 µM.
As to `CCOC(=O)c1ccc(N)cc1` [BENZOCAINE], the AC50 (on Progesterone receptor; in test [1]; in test [2]; in test [3]; in test [4]; in test [5]) was more than 10 µM in each case.
Regarding `CC(C)(Oc1ccc(CCNC(=O)c2ccc(Cl)cc2)cc1)C(=O)O` [BEZAFIBRATE], the AC50 (on Progesterone receptor; in test [1]; in test [2]; in test [3]; in test [4]; in test [5]) was more than 10 µM throughout.
For the compound `CC(O)(CS(=O)(=O)c1ccc(F)cc1)C(=O)Nc1ccc(C#N)c(C(F)(F)F)c1` (configuration not stated) [BICALUTAMIDE], the AC50 was more than 30 µM on Progesterone receptor; more than 10 µM in test [1]; more than 30 µM in test [2]; 13 µM in test [3]; more than 10 µM in test [4]; more than 30 µM in test [5].
In the case of `NC[C@H]1CC[C@H](C(=O)Oc2ccc(CCC(=O)O)cc2)CC1` [CETRAXATE], the AC50 in test [1] and in test [3] was more than 30 µM each time.
Consider `CC(=O)O[C@]1(C(C)=O)CC[C@H]2[C@@H]3C=C(Cl)C4=CC(=O)[C@@H]5C[C@@H]5[C@]4(C)[C@H]3CC[C@@]21C` [CYPROTERONE ACETATE], for which the AC50 is more than 30 µM in test [2], more than 10 µM in test [3], more than 10 µM in test [4] and more than 30 µM in test [5].
`CN(C)CCCN1c2ccccc2CCc2ccccc21` [IMIPRAMINE]: the values for the AC50 in test [1], in test [3] and in test [5] were 5 µM, 2.1 µM and more than 30 µM, respectively.
Regarding `CCC[C@@H]1C[C@@H](C(=O)N[C@@H]([C@H]2O[C@H](SC)[C@H](O)[C@@H](O)[C@H]2O)[C@@H](C)O)N(C)C1` [LINCOMYCIN], the AC50 in test [1] is more than 30 µM; in test [2], more than 10 µM; in test [3], more than 10 µM; in test [4], more than 10 µM; in test [5] it was more than 10 µM.
In the case of `COC(=O)C1=C(C)NC(C)=C(C(=O)OCCN2CCN(C(c3ccccc3)c3ccccc3)CC2)C1c1cccc([N+](=O)[O-])c1` (configuration not stated) [MANIDIPINE 6300], the AC50 was more than 30 µM in test [1]; 23 µM in test [2]; more than 30 µM in test [3]; 0.3 µM in test [4]; more than 30 µM in test [5].
`CN(Cc1cnc2nc(N)nc(N)c2n1)c1ccc(C(=O)N[C@@H](CCC(=O)O)C(=O)O)cc1` [METHOTREXATE]: the AC50 in test [1] was more than 10 µM; in test [2], more than 30 µM; in test [3], more than 10 µM; in test [4], more than 10 µM; in test [5], more than 30 µM.
Take `OC[C@H]1O[C@@H](n2cnc3c2NC=NC[C@H]3O)C[C@@H]1O` [PENTOSTATIN]: the AC50 (at Progesterone receptor; in test [1]; in test [2]; in test [3]; in test [5]) was more than 30 µM in each case.
As for `CC(C)c1cccc(C(C)C)c1O` [PROPOFOL], the AC50 (on Progesterone receptor; in test [1]; in test [2]; in test [3]; in test [5]) was more than 30 µM throughout.
On to `CN[C@@H](C)[C@@H](O)c1ccccc1` [PSEUDOEPHEDRINE], for which the AC50 in test [1] is more than 10 µM; in test [2], more than 10 µM; in test [3] it was 13 µM; in test [4] it was more than 10 µM; in test [5] it was more than 30 µM.
On to `CCCN1CC(NS(=O)(=O)N(CC)CC)CC2Cc3c(O)cccc3CC21` (configuration not stated) [QUINAGOLIDE], for which the AC50 was more than 30 µM on Progesterone receptor, more than 30 µM in test [2], 11 µM in test [3] and more than 30 µM in test [4].
Take `C[C@]12CCC(=O)C[C@@H]1CC[C@@H]1[C@@H]2CC[C@]2(C)[C@@H](O)CC[C@@H]12` [STANOLONE]: the AC50 in test [1], in test [2], in test [3], in test [4] and in test [5] was more than 30 µM each time.
On to `O=C1OC(OC(=O)c2cccnc2Nc2cccc(C(F)(F)F)c2)c2ccccc21` (configuration not stated) [TALNIFLUMATE], for which the AC50 (at Progesterone receptor; in test [1]; in test [2]; in test [3]; in test [5]) was more than 30 µM each time.
For `O=S1(=O)CCN(CN2CCS(=O)(=O)NC2)CN1` [TAUROLIDINE], the AC50 (at Progesterone receptor; in test [2]; in test [3]; in test [5]) was more than 30 µM throughout.
